US20230108906A1, “SUBSTITUTED BICYCLIC AND TRICYCLIC UREAS AND AMIDES, ANALOGUES THEREOF, AND METHODS USING SAME” (Arbutus Biopharma Corporation, priority 2019, published 2023)
pEC50: −log10 of the molar value.

The molecules below were run on HBV rcDNA in HepDE19 cells (assay: HepDE19 assay with bDNA quantitation of HBV rcDNA). Conditions: Hepatitis B virus, HepDE19, 168 h, inhibition of rcDNA formation in HepDE19 cells (HepG2 derived), Tet-free medium, 7 day incubation, Quantigene 2.0 bDNA readout, top concentration 25 μM; read-out: DE-19bDNA EC50.
Type: cell-based, hepatitis B virus (HBV)
Summary of the method: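 Cytotoxicity run on replicate plates (5,000 cells/well, 4 days, ATP luminescence, CC50), while antiviral plates (50,000 cells/well) received compound for 7 days after tetracycline withdrawal to induce HBV replication. Top dose 25 μM, 8 points, 0.5% DMSO; rcDNA by branched-DNA assay, % inhibition fitted (4-parameter) for EC50 and EC90.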

Compound | pEC50
CN(C(=O)Nc1ccc(F)c(Cl)c1)C1CS(=O)(=O)Cc2[nH]c(=O)c3cc(F)ccc3c21 (single isomer, unassigned) [Compound 197, 3-(3-Chloro-4-fluorophenyl)-1-(8-fluoro-3,3-dioxido-6-oxo-1,4,5,6-tetrahydro-2H-thiopyrano[3,4-c]isoquinolin-1-yl)-1-methylurea] | 5.64
CN(C(=O)Nc1ccc(F)c(Cl)c1)C1CS(=O)(=O)Cc2[nH]c(=O)c3cc(F)c(F)cc3c21 (single isomer, unassigned) [Compound 203, 3-(3-Chloro-4-fluorophenyl)-1-(8,9-difluoro-3,3-dioxido-6-oxo-1,4,5,6-tetrahydro-2H-thiopyrano[3,4-c]isoquinolin-1-yl)-1-methylurea] | 5.85
CN(C(=O)Nc1ccc(F)c(C#N)c1)C1CS(=O)(=O)Cc2[nH]c(=O)c3cc(F)c(F)cc3c21 (single isomer, unassigned) [Compound 205, 3-(3-Cyano-4-fluorophenyl)-1-(8,9-difluoro-3,3-dioxido-6-oxo-1,4,5,6-tetrahydro-2H-thiopyrano[3,4-c]isoquinolin-1-yl)-1-methylurea] | 5.14

Same assay, conditions: inhibition of rcDNA formation in HepDE19 cells (HepG2 derived), Tet-free medium, 7 day incubation, Quantigene 2.0 bDNA readout, top concentration 25 μM; read-out: DE-19bDNA EC50

Compound | pEC50
CN(C(=O)Nc1ccc(F)c(Cl)c1)C1C[S+]([O-])Cc2[nH]c(=O)c3cc(F)ccc3c21 (single isomer, unassigned) [Compound 194, 3-(3-Chloro-4-fluorophenyl)-1-(8-fluoro-3-oxido-6-oxo-1,4,5,6-tetrahydro-2H-thiopyrano[3,4-c]isoquinolin-1-yl)-1-methylurea] | ≤ 4.60
CN(C(=O)Nc1ccc(F)c(Cl)c1)C1C[S+]([O-])Cc2[nH]c(=O)c3cc(F)ccc3c21 (single isomer, unassigned) [Compound 195] | 6.05
CN(C(=O)Nc1ccc(F)c(Cl)c1)C1C[S+]([O-])Cc2[nH]c(=O)c3cc(F)ccc3c21 (single isomer, unassigned) [Compound 196, 3-(3-Chloro-4-fluorophenyl)-1-(8-fluoro-3-oxido-6-oxo-1,4,5,6-tetrahydro-2H-thiopyrano[3,4-c]isoquinolin-1-yl)-1-methylurea] | 4.66
CN(C(=O)Nc1ccc(F)c(Cl)c1)C1CS(=O)(=O)Cc2[nH]c(=O)c3cc(F)ccc3c21 (single isomer, unassigned) [Compound 198, 3-(3-Chloro-4-fluorophenyl)-1-(8-fluoro-3,3-dioxido-6-oxo-1,4,5,6-tetrahydro-2H-thiopyrano[3,4-c]isoquinolin-1-yl)-1-methylurea] | 5.43
CN(C(=O)Nc1ccc(F)c(C#N)c1)C1C[S+]([O-])Cc2[nH]c(=O)c3cc(F)ccc3c21 (single isomer, unassigned) [Compound 199, 3-(3-Cyano-4-fluorophenyl)-1-(8-fluoro-3-oxido-6-oxo-1,4,5,6-tetrahydro-2H-thiopyrano[3,4-c]isoquinolin-1-yl)-1-methylurea] | 4.70
CN(C(=O)Nc1ccc(F)c(C#N)c1)C1C[S+]([O-])Cc2[nH]c(=O)c3cc(F)ccc3c21 (single isomer, unassigned) [Compound 200, 3-(3-Cyano-4-fluorophenyl)-1-(8-fluoro-3-oxido-6-oxo-1,4,5,6-tetrahydro-2H-thiopyrano[3,4-c]isoquinolin-1-yl)-1-methylurea] | ≤ 4.60
CN(C(=O)Nc1ccc(F)c(C#N)c1)C1C[S+]([O-])Cc2[nH]c(=O)c3cc(F)ccc3c21 (single isomer, unassigned) [Compound 201, 3-(3-Cyano-4-fluorophenyl)-1-(8-fluoro-3-oxido-6-oxo-1,4,5,6-tetrahydro-2H-thiopyrano[3,4-c]isoquinolin-1-yl)-1-methylurea] | 5.44
CN(C(=O)Nc1ccc(F)c(C#N)c1)C1C[S+]([O-])Cc2[nH]c(=O)c3cc(F)ccc3c21 (single isomer, unassigned) [Compound 202, 3-(3-Cyano-4-fluorophenyl)-1-(8-fluoro-3-oxido-6-oxo-1,4,5,6-tetrahydro-2H-thiopyrano[3,4-c]isoquinolin-1-yl)-1-methylurea] | ≤ 4.60
CN(C(=O)Nc1ccc(F)c(Cl)c1)C1CS(=O)(=O)Cc2[nH]c(=O)c3cc(F)c(F)cc3c21 (single isomer, unassigned) [Compound 204, 3-(3-Chloro-4-fluorophenyl)-1-(8,9-difluoro-3,3-dioxido-6-oxo-1,4,5,6-tetrahydro-2H-thiopyrano[3,4-c]isoquinolin-1-yl)-1-methylurea] | 5.85
CN(C(=O)Nc1ccc(F)c(C#N)c1)C1CS(=O)(=O)Cc2[nH]c(=O)c3cc(F)c(F)cc3c21 (single isomer, unassigned) [Compound 206, 3-(3-Cyano-4-fluorophenyl)-1-(8,9-difluoro-3,3-dioxido-6-oxo-1,4,5,6-tetrahydro-2H-thiopyrano[3,4-c]isoquinolin-1-yl)-1-methylurea] | 5.32
CN(C(=O)Nc1ccc(F)c(Cl)c1)C1C[S+]([O-])Cc2[nH]c(=O)c3cc(F)c(F)cc3c21 (single isomer, unassigned) [Compound 207, 3-(3-Chloro-4-fluorophenyl)-1-(8,9-difluoro-3-oxido-6-oxo-1,4,5,6-tetrahydro-2H-thiopyrano[3,4-c]isoquinolin-1-yl)-1-methylurea] | 5.89
CN(C(=O)Nc1ccc(F)c(Cl)c1)C1C[S+]([O-])Cc2[nH]c(=O)c3cc(F)c(F)cc3c21 (single isomer, unassigned) [Compound 208, 3-(3-Chioro-4-fluorophenyl)-1-(8,9-difluoro-3-oxido-6-oxo-1,4,5,6-tetrahydro-2H-thiopyrano[3,4-c]isoquinolin-1-yl)-1-methylurea] | 5.07
CN(C(=O)Nc1ccc(F)c(Cl)c1)C1C[S+]([O-])Cc2[nH]c(=O)c3cc(F)c(F)cc3c21 (single isomer, unassigned) [Compound 209, 3-(3-Chloro-4-fluorophenyl)-1-(8,9-difluoro-3-oxido-6-oxo-1,4,5,6-tetrahydro-2H-thiopyrano[3,4-c]isoquinolin-1-yl)-1-methylurea] | 6.15
CN(C(=O)Nc1ccc(F)c(Cl)c1)C1C[S+]([O-])Cc2[nH]c(=O)c3cc(F)c(F)cc3c21 (single isomer, unassigned) [Compound 210, 3-(3-Chloro-4-fluorophenyl)-1-(8,9-difluoro-3-oxido-6-oxo-1,4,5,6-tetrahydro-2H-thiopyrano[3,4-c]isoquinolin-1-yl)-1-methylurea] | 5.15
CN(C(=O)Nc1ccc(F)c(C#N)c1)C1C[S+]([O-])Cc2[nH]c(=O)c3cc(F)c(F)cc3c21 (single isomer, unassigned) [Compound 211, 3-(3-Cyano-4-fluorophenyl)-1-(8,9-difluoro-3-oxido-6-oxo-1,4,5,6-tetrahydro-2H-thiopyrano[3,4-c]isoquinolin-1-yl)-1-methylurea] | 5.26
CN(C(=O)Nc1ccc(F)c(C#N)c1)C1C[S+]([O-])Cc2[nH]c(=O)c3cc(F)c(F)cc3c21 (single isomer, unassigned) [Compound 212, 3-(3-Cyano-4-fluorophenyl)-1-(8,9-difluoro-3-oxido-6-oxo-1,4,5,6-tetrahydro-2H-thiopyrano[3,4-c]isoquinolin-1-yl)-1-methylurea] | ≤ 4.60
CN(C(=O)Nc1ccc(F)c(C#N)c1)C1C[S+]([O-])Cc2[nH]c(=O)c3cc(F)c(F)cc3c21 (single isomer, unassigned) [Compound 213, 3-(3-Cyano-4-fluorophenyl)-1-(8,9-difluoro-3-oxido-6-oxo-1,4,5,6-tetrahydro-2H-thiopyrano[3,4-c]isoquinolin-1-yl)-1-methylurea] | 6.00
